Measured values as given in patent US8008354B2, “Death receptor sensitizing compounds and methods of use therefor” (Burnham Institute for Medical Research, priority 2006, dated 2011).

Test system: PPC-1 cells
Experiment: MTS viability of adherent PPC-1 cells with or without CH-11, thirty hours
Format: cell-based, human
Conditions: CH-11 100 ng/mL
Procedure: FIG. 13. Small molecule down-regulation of FLIP sensitizes prostate cancer cells to anoikis. (A) PPC-1 cells were seeded overnight in adherent conditions and then treated with increasing concentrations of 5809354 for 16 hours. After incubation, cells were harvested. Total cellular RNA was extracted and mRNA levels of the long isoform of FLIP (FLIPL), the short isoform of FLIP (FLIPS), or rRNA levels of 18S were detected by real-time RT-PCR. Data were normalized using the ΔΔCT method and expressed as the mean±SEM percent of […] expression relative to untreated controls. (B) PPC-1 cells were cultured and treated as in panel A. Total cellular protein was isolated and analyzed by SDS-PAGE immunoblotting using anti-FLIP and anti-Actin antibodies. […] Thirty hours after incubation, cell viability was determined using the MTS assay. […] After incubation, apoptosis was measured by flow cytometry to detect cell surface annexin V expression and PI. […] (E) Cells were harvested, fixed, stained with DAPI, and nuclear morphology analyzed by fluorescence microscopy. […] One week later, cells were stained with methylene blue and the number of colonies counted. […]
Cell viability apoptosis, colony formation, and caspase activation assays. Cell viability was assessed using the MTS reduction assay (Promega, Madison, Wis., USA) according to the manufacturer's protocols and as described in Schimmer et al. (2006). […]

## 4-(4-chloro-2-methylphenoxy)-N-hydroxybutanamide [compound 5809354]
  viability in the presence of Fas-activating antibody (CH-11): decreases in viability
